Drawing on ChEMBL document CHEMBL3045135, “Synthesis, characterization and pharmacological evaluation of (E)-N-(substituted-benzylidene)isonicotinohydrazide derivatives as potent anticonvulsant agents” (Med Chem Res, 2012), this text covers MTD, Activity and minimal effective dose for 8 compounds.

Structures are written as SMILES. The source made the active and inactive calls. No cut-off for these calls is given here.

Data set [1] can be described thus: Neurotoxicity in ip dosed Mus musculus C57B/6 (mouse) assessed as minimal motor impairment after 4 hr. It counts as toxicity, organism-based. Particulars: in vivo.
Data set [2] has as its system Mus musculus. Kind of data set: Anticonvulsant activity in Mus musculus C57B/6 (mouse) assessed as protection against maximal electroshock-induced seizure at 300 mg/kg, ip after 4 hr. It counts as functional, organism-based. More on the design: dose 300 mg/kg. A general note: Protection in the maximal electroshock model is a classic sign of anticonvulsant action.
The test system of data set [3] is Mus musculus. Kind of data set: Neurotoxicity in Mus musculus C57B/6 (mouse) assessed as minimal motor impairment at 300 mg/kg, ip after 0.5 hr. It counts as toxicity, organism-based. More on the design: dose 300 mg/kg, route intraperitoneal. Particulars: in vivo.
Data set [4] deals with Mus musculus. As to the kind of experiment: Anticonvulsant activity in Mus musculus C57B/6 (mouse) assessed as protection against maximal electroshock-induced seizure at 300 mg/kg, ip after 0.5 hr. It counts as functional, organism-based. Further details: dose 300 mg/kg.
Data set [5] relates to Mus musculus. Kind of data set: Anticonvulsant activity in Mus musculus C57B/6 (mouse) assessed as protection against subcutaneous pentylene tetrazole-induced seizure at 300 mg/kg, ip after 4 hr. Further details: dose 300 mg/kg. It counts as functional, organism-based.
Data set [6] relates to Mus musculus. As to the kind of experiment: Anticonvulsant activity in Mus musculus C57B/6 (mouse) assessed as protection against subcutaneous pentylene tetrazole-induced seizure at 300 mg/kg, ip after 0.5 hr. It counts as functional, organism-based. Further details: dose 300 mg/kg.
For data set [7], the system named is Mus musculus. Kind of data set: Anticonvulsant activity in ip dosed Mus musculus C57B/6 (mouse) assessed as protection against maximal electroshock-induced seizure after 0.5 hr. It counts as functional. Particulars: C57B/6, ip, read-out: MED.
Data set [8] concerns Mus musculus. Kind of data set: Anticonvulsant activity in Mus musculus C57B/6 (mouse) assessed as protection against 6 Hz psychomotor seizure at 100 mg/kg, ip after 0.25 to 4 hr by minimal clonic seizure test. It counts as functional, organism-based. Further details: dose 100 mg/kg.
Data set [9] concerns Mus musculus. Kind of data set: Neurotoxicity in Mus musculus C57B/6 (mouse) assessed as minimal motor impairment at 300 mg/kg, ip after 4 hr. It counts as toxicity, organism-based. More on the design: dose 300 mg/kg, route intraperitoneal. Particulars: in vivo.
Data set [10] concerns Mus musculus. Kind of data set: Anticonvulsant activity in ip dosed Mus musculus C57B/6 (mouse) assessed as protection against subcutaneous pentylene tetrazole-induced seizure after 0.5 hr. It counts as functional. Particulars: C57B/6, 0.5 h, read-out: MED.
In data set [11] the test system is Mus musculus. As to the kind of experiment: Anticonvulsant activity in ip dosed Mus musculus C57B/6 (mouse) assessed as protection against maximal electroshock-induced seizure after 4 hr. It counts as functional. Particulars: C57B/6, ip, read-out: MED.

Turning to `O=C(N/N=C(\c1ccccc1)c1ccc(Br)cc1)c1ccncc1`, the MTD at 4 h in data set [1] was determined as 100 mg/kg. For the same compound, the result in the data set on Mus musculus [2], in the data set on Mus musculus [4], in the data set with Mus musculus [5] and with Mus musculus [6] was inactive. Also, the Activity entry in the data set with Mus musculus [3] was “Non-toxic”.

Consider `O=C(N/N=C/c1cccc(F)c1)c1ccncc1`, for which the minimal effective dose in the data set on Mus musculus [7] came to 300 mg/kg. Moreover, the result in the data set with Mus musculus [8] was Active. The result with Mus musculus [2], with Mus musculus [5] and with Mus musculus [6] was inactive. Further, the Activity result with Mus musculus [3] and with Mus musculus [9] was “Non-toxic” throughout.

Take `O=C(NN=C(c1ccccc1)c1ccccc1)c1ccncc1`: the minimal effective dose in the data set with Mus musculus [7] and in the data set on Mus musculus [10] was 300 mg/kg each time. In addition, the outcome in the data set on Mus musculus [8] was Active. The result in the data set with Mus musculus [2] and in the data set with Mus musculus [5] was inactive. In addition, the Activity entry in the data set on Mus musculus [3] and in the data set on Mus musculus [9] was “Non-toxic” throughout.

Regarding `CCOc1ccccc1/C=N/NC(=O)c1ccncc1`, the minimal effective dose in the data set with Mus musculus [7] was determined as 300 mg/kg. Besides, the result in the data set with Mus musculus [8] was Active. The outcome in the data set on Mus musculus [2], with Mus musculus [5] and in the data set with Mus musculus [6] was inactive. Moreover, the Activity result in the data set with Mus musculus [3] and in the data set on Mus musculus [9] was “Non-toxic” in each case.

For `CN(C)c1ccc(/C=N/NC(=O)c2ccncc2)cc1` [N'-(4-DIMETHYLAMINOBENZYLIDENE)ISONICOTINOHYDRAZIDE], the MTD at 4 h in data set [1] was 300 mg/kg. Besides, the outcome in the data set with Mus musculus [2], in the data set with Mus musculus [4], in the data set on Mus musculus [5] and in the data set on Mus musculus [6] was inactive. Also, in the data set on Mus musculus [3], the Activity result was “Non-toxic”.

Consider `O=C1NC(=O)C(c2ccccc2)(c2ccccc2)N1` [PHENYTOIN], for which the minimal effective dose with Mus musculus [7] and with Mus musculus [11] was 30 mg/kg in each case. For the same compound, the result in the data set on Mus musculus [5] and in the data set with Mus musculus [6] was inactive.

`C/C(=N\NC(=O)c1ccncc1)c1ccccc1` [ISONICOTINOYLHYDRAZONE OF ACETOPHENONE]: the MTD at 4 h in [1] was 300 mg/kg. For the same compound, the outcome in the data set on Mus musculus [2], in the data set on Mus musculus [4], with Mus musculus [5] and with Mus musculus [6] was inactive.

For `O=C(N/N=C/c1ccccc1)c1ccncc1` [N'-BENZYLIDENE ISONICOTINOHYDRAZIDE], in the data set with Mus musculus [7], the minimal effective dose was found to be 300 mg/kg. In the data set on Mus musculus [8], the result was Active. Also, the outcome in the data set with Mus musculus [2], in the data set with Mus musculus [5] and in the data set with Mus musculus [6] was inactive. Further, the Activity entry in the data set with Mus musculus [3] and in the data set with Mus musculus [9] was “Non-toxic” each time.
